In experiment [1] the test system is D. immitis microfilaria (L1). The experiment is described as follows: In vitro assay Dirofilaria immitis L1, motility of microfilaria. Format: cell-based. To be noted: 72 h, read-out: EC50 value, Dirofilaria immitis L1, reduction in motility vs DMSO, incubation 3 days.
In experiment [2] the target is human Maxi K channel (BK channel), KCNMA1 (KCa1.1) and beta1 (KCNMB1) subunits (Homo sapiens, UniProt Q12791).
Description: In Vitro Assay: Agonistic Activity at the Human Maxi K Channel (BK Channel)
A CHO K1 cell line was stably transfected with the KCNMA1 (KCa1.1, U11058) and betal (KCNMB1) subunits of the human Maxi K channel (Ponte et al, Molecular Pharmacology 2012, 81(4), 567-577).
Cells were seeded in microtiter plates (black 384-well MTP, clear bottom) in a concentration of 20,000 cells/well in 25 μl medium and cultured for 20 to 24 hours at 37° C. and 5% CO2. After incubation, 25 μl of FMP-dye Blue-Tyrode's was added to each well and incubated at room temperature for 30 min. Ten minutes after addition of 12.5 μl compound solution, the plates are transferred to the FLIPR for measurement.
For the membrane potential measurements, plates were placed in the FLIPR Penta (Molecular Devices). The baseline measurement of the fluorescence was stared for 20 sec (Exc. 510-545 nm, Emm. 565-625 nm). Potential channel opening measurement was started by addition of 25 μl KCl-Tyrode (final assay concentration of the KCl-Tyrode: 70 mM KCl, 2 mM CaCl2, 1 mM MgCl2, 0.8 mM NaH2PO4, 5 mM Glucose, 28 mM Hepes, pH 7.4, including the voltage sensitive dye). The complete measurement takes 150 s.
EC50 values were determined in triplicate utilizing compound dilution series. The data were determined at least in two independent tests. The data were proceeded by using the ActivityBase XE Runner software (IDBS) for curve fitting and calculation of the half-maximal effective concentration.
The test system of another experiment is Haemonchus contortus. In words: In vivo efficacy against Haemonchus contortus in jirds. To be noted: in Meriones unguiculatus, 72 h, read-out: reduction of the Haemonchus contortus count.
For experiment [3], the system named is A. viteae microfilaria (L1). The experiment is described as follows: In vitro assay Acanthocheilonema viteae L1, motility of microfilaria. To be noted: 72 h, read-out: EC50 value, Acanthocheilonema viteae L1, reduction in motility vs DMSO, incubation 3 days.
Description: Approximately 500 A. viteae microfilaria were added to a microtiter plate containing a nutrient medium and the test compound in DMSO at varying concentrations. After incubation for 3 days, activity was evaluated as reduction in motility as compared to DMSO as negative control.
Compounds were tested in duplicates. Based on the concentration response curves EC50 values were calculated.

Experimental findings from patent publication US12703706B2, “Anthelmintic compounds comprising a thienopyridine structure” (Intervet Inc., priority 2020, dated 2026) are described below.

Broadly, the EC50 is the concentration giving half of the maximal effect.

Each structure is given as a SMILES string.

human Maxi K channel (BK channel), KCNMA1 (KCa1.1) and beta1 (KCNMB1) subunits, sequence (Q12791 1-1178 isoform Q12791-5): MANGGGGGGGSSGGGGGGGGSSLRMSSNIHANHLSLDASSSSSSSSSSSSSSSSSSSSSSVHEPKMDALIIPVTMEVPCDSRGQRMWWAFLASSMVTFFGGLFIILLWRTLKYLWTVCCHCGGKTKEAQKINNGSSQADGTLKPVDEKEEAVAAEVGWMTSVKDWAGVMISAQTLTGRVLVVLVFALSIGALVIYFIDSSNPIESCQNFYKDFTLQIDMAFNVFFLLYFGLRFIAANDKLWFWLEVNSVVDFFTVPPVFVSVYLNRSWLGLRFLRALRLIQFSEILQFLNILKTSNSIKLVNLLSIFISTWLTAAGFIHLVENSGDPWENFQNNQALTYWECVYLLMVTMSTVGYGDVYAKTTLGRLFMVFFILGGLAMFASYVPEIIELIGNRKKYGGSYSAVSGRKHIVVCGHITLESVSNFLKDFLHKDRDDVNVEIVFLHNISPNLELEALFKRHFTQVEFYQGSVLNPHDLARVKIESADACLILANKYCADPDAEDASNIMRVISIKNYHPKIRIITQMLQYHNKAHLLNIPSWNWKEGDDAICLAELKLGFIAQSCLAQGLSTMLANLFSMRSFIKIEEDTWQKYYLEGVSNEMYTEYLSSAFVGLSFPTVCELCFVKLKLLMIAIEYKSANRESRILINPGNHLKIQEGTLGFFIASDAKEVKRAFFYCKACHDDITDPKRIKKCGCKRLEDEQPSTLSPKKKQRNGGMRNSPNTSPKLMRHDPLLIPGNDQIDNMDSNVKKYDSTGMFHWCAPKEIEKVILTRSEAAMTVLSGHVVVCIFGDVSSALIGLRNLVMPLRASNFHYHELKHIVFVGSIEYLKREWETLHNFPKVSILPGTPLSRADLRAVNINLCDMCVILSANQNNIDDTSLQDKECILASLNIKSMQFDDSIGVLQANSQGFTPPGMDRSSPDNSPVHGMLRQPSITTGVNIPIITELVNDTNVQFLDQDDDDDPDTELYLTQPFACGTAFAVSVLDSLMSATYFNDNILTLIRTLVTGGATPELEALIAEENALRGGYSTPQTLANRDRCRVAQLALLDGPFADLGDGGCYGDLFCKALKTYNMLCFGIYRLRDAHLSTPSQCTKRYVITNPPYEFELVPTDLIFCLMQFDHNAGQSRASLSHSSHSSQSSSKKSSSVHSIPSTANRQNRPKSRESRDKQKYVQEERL
human Maxi K channel (BK channel), KCNMA1 (KCa1.1) and beta1 (KCNMB1) subunits, sequence (Q16558 whole entry partner): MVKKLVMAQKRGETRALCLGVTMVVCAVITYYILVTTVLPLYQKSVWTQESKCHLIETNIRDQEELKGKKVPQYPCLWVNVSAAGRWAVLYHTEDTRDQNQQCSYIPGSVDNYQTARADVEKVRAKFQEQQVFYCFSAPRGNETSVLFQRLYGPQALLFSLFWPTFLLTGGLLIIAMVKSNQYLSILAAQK
Description for Haemonchus contortus: In Vivo Assay: Efficacy Against Haemonchus contortus in Jirds
The jirds were orally infected with approximately 1500 third-stage larvae of Haemonchus contortus. Ten days after infection, the jirds in the treatment groups were treated once either orally or subcutaneously with compounds at a dose of 10 mg per kg bodyweight. For treatment, compounds were dissolved in a mixture of 10% Transcutol, 10% Cremophor EL and 80% physiological sodium chloride solution. Three days after treatment, the jirds were necropsied, and the larvae burden in the stomach was determined. The efficacy was defined as the reduction of the mean larvae count in the infected jirds of the treatment group in comparison to the infected jirds in an untreated control group (negative control).

For `O=C(NC1COc2ccccc21)c1cnc2c(-c3cccc(Cl)c3)csc2c1N1CCOCC1` (stereo not shown) [Compound 80], the EC50 in experiment [1] is below 10 µM; in experiment [2], above 30 µM.

`Cc1sc2c(N(C)C)c(C(=O)N[C@H]3CCOc4ccccc43)cnc2c1-c1cc(F)cc(F)c1F` [Compound 102]: in experiment [2], the EC50 is above 30 µM. Also, in the experiment on Haemonchus contortus, the inhibition in vivo at 10 mg/kg was at least 80%.

The compound `Cc1sc2c(N3CCOCC3)c(C(=O)N[C@H]3CCOc4ccccc43)cnc2c1-c1cccc(Cl)c1Cl` [Compound 72] registered an EC50 in experiment [2] above 30 µM. Also, in the experiment with Haemonchus contortus, the inhibition in vivo at 10 mg/kg is at least 80%.

For the compound `Cc1sc2c(N(C)C)c(C(=O)N[C@H]3CCOc4ccccc43)cnc2c1-c1cc(Cl)cc(Cl)c1` [Compound 53], the EC50 in experiment [2] was above 30 µM. Further, in the experiment with Haemonchus contortus, the inhibition in vivo at 10 mg/kg was at least 80%.

Regarding `Cc1sc2c(N3CC(F)C3)c(C(=O)N[C@H]3CCOc4ccccc43)cnc2c1-c1cccc(Cl)c1Cl` [Compound 62], the EC50 in experiment [2] is above 30 µM. Further, the inhibition in vivo at 10 mg/kg with Haemonchus contortus is at least 80%.

Regarding `CN1CCN(c2c(C(=O)N[C@H]3CCOc4ccccc43)cnc3c(-c4cccc(Cl)c4Cl)csc23)CC1` [Compound 17], the EC50 in experiment [1] is below 10 µM; in experiment [2], above 30 µM; in experiment [3], below 10 µM.

For the compound `Cc1sc2c(N(C)C)c(C(=O)N[C@H]3CCc4ccccc43)cnc2c1-c1cc(Cl)cc(Cl)c1` [Compound 33], the EC50 in experiment [2] is above 30 µM.

The compound `C[C@H](NC(=O)c1cnc2c(-c3cc(Cl)cc(Cl)c3)csc2c1N(C)C)c1ccccc1` [Compound 8] registered an EC50 in experiment [2] above 30 µM.

Take `CN(C)c1c(C(=O)Nc2cccc3ccccc23)cnc2c(-c3cccc(Cl)c3Cl)csc12` [Compound 22]: the EC50 in experiment [2] is above 30 µM.

In experiment [2], `O=C(N[C@H]1CCc2ccccc21)c1cnc2c(-c3cccc(Cl)c3Cl)csc2c1N1CC(F)(F)C1` [Compound 39] showed an EC50 above 30 µM.

For `Cc1cccc(-c2csc3c(N(C)C)c(C(=O)N[C@H]4CCOc5ccccc54)cnc23)c1C` [Compound 75], the EC50 in experiment [2] is above 30 µM.

Regarding `Cc1sc2c(N(C)C)c(C(=O)N[C@H]3CCOc4ccccc43)cnc2c1-c1cc(F)cc(F)c1` [Compound 103], the EC50 in experiment [2] is above 30 µM.

The compound `O=C(N[C@H]1CCCc2ccccc21)c1cnc2c(-c3cccc(Cl)c3Cl)csc2c1N1CCOCC1` [Compound 13] gave an EC50 in experiment [2] of 5 to 10 µM.

As for `O=C(N[C@H]1CCOc2ccccc21)c1cnc2c(-c3cccc(F)c3F)csc2c1N1CCC1` [Compound 85], the EC50 in experiment [2] was above 30 µM.

In turn, `CN(C)c1c(C(=O)N[C@H]2CCOc3ccccc32)cnc2c(-c3cc(Cl)cc(Cl)c3)csc12` [Compound 7] gave an EC50 in experiment [2] above 30 µM.

Turning to `O=C1CCN(c2c(C(=O)N[C@H]3CCOc4ccccc43)cnc3c(-c4cc(Cl)cc(Cl)c4)csc23)CC1` [Compound 52], the EC50 in experiment [2] is above 30 µM.

In the case of `Cc1sc2c(N(C)C)c(C(=O)Nc3cccc4ccccc34)cnc2c1-c1cc(Cl)cc(Cl)c1` [Compound 54], the EC50 in experiment [2] is above 30 µM.

Compound `CN(C)c1cccc(-c2csc3c(N(C)C)c(C(=O)N[C@H]4CCOc5ccccc54)cnc23)c1` [Compound 98] showed an EC50 in experiment [2] above 30 µM.

For `Cc1sc2c(N3CC(F)C3)c(C(=O)N[C@H]3CCCc4ccccc43)cnc2c1-c1cccc(Cl)c1Cl` [Compound 61], the EC50 in experiment [2] was above 30 µM.

As for `Cc1sc2c(N3CC(F)C3)c(C(=O)N[C@H]3CCOc4ccccc43)cnc2c1-c1cc(Cl)cc(Cl)c1` [Compound 65], the EC50 in experiment [2] is above 30 µM. In the experiment on Haemonchus contortus, the inhibition in vivo at 10 mg/kg is at least 80%.

Consider `CN(C)c1c(C(=O)N[C@H]2CCOc3ccccc32)cnc2c(-c3cccc(Cl)c3Cl)csc12` [Compound 10], for which, in experiment [2], the EC50 was above 30 µM. For the same compound, the inhibition in vivo at 10 mg/kg with Haemonchus contortus is at least 80%.

For the compound `Cc1sc2c(N3CCOCC3)c(C(=O)N[C@H]3CCOc4ccccc43)cnc2c1-c1cc(F)cc(F)c1F` [Compound 106], the EC50 in experiment [2] was above 30 µM.

Regarding `Cc1sc2c(N3CCOCC3)c(C(=O)N[C@H]3CCc4ccccc43)cnc2c1-c1cccc(OC(F)(F)F)c1` [Compound 113], in experiment [2], the EC50 was above 30 µM.

For `O=C(N[C@H]1CCc2ccccc21)c1cnc2c(-c3cc(Cl)cc(Cl)c3)csc2c1N1CCOCC1` [Compound 3], the EC50 in experiment [2] was above 30 µM.

Consider `O=C(N[C@H]1CCc2ccccc21)c1cnc2c(-c3cccc(Cl)c3Cl)csc2c1N1CCOCC1` [Compound 6], for which the EC50 in experiment [2] was 5 to 10 µM.

With `CN(C)c1c(C(=O)N[C@H]2CCc3ccccc32)cnc2c(-c3cc(Cl)cc(Cl)c3)csc12` [Compound 9], the EC50 in experiment [2] was above 30 µM.

In experiment [2], `CN(C)c1c(C(=O)NC2COc3ccccc32)cnc2c(-c3cccc(Cl)c3Cl)csc12` (stereo not shown) [Compound 78] returned an EC50 above 30 µM.

In turn, `O=C(NC1COc2ccccc21)c1cnc2c(-c3cc(Cl)cc(Cl)c3)csc2c1N1CCOCC1` (stereo not shown) [Compound 81] came in with an EC50 in experiment [2] above 30 µM.

In experiment [2], `O=C(N[C@H]1CCOc2ccccc21)c1cnc2c(-c3cccc(F)c3F)csc2c1N1CC(F)C1` [Compound 91] displayed an EC50 above 30 µM.

The compound `O=C(N[C@H]1CCOc2ccccc21)c1cnc2c(-c3cccc(C(F)(F)F)c3)csc2c1NC1CC1` [Compound 89] had an EC50 in experiment [2] above 30 µM.

`Cc1sc2c(N(C)C)c(C(=O)N[C@H]3CCc4ccccc43)cnc2c1-c1cccc(Cl)c1Cl` [Compound 34] returned an EC50 in experiment [2] above 30 µM.

Take `COc1cccc(-c2csc3c(N(C)C)c(C(=O)N[C@H]4CCOc5ccccc54)cnc23)c1` [Compound 48]: the EC50 in experiment [2] was above 30 µM.

In turn, `CN(C)c1c(C(=O)N[C@H]2CCOc3ccccc32)cnc2c(-c3cc(F)cc(F)c3)csc12` [Compound 51] had an EC50 in experiment [2] above 30 µM.

In the case of `Cc1sc2c(N3CCOCC3)c(C(=O)N[C@H]3CCOc4ccccc43)cnc2c1-c1cc(Cl)cc(Cl)c1` [Compound 68], in experiment [2], the EC50 is above 30 µM. In the experiment on Haemonchus contortus, the inhibition in vivo at 10 mg/kg is at least 80%.

In experiment [2], `O=C(N[C@H]1CCOc2ccccc21)c1cnc2c(-c3cc(F)cc(F)c3)csc2c1N1CCOCC1` [Compound 45] gave an EC50 above 30 µM.

As for `Cc1sc2c(N3CCOCC3)c(C(=O)N[C@H]3CCCc4ccccc43)cnc2c1-c1cccc(Cl)c1Cl` [Compound 71], in experiment [2], the EC50 was above 30 µM.

With `Cc1sc2c(N3CC(F)(F)C3)c(C(=O)N[C@H]3CCOc4ccccc43)cnc2c1-c1cccc(Cl)c1Cl` [Compound 56], in experiment [2], the EC50 was above 30 µM. The inhibition in vivo at 10 mg/kg with Haemonchus contortus is at least 80%.

In turn, `CN1CCN(c2c(C(=O)N[C@H]3CCc4ccccc43)cnc3c(-c4cc(Cl)cc(Cl)c4)csc23)CC1` [Compound 29] registered an EC50 in experiment [2] above 30 µM.

`Cc1sc2c(N3CC(F)(F)C3)c(C(=O)N[C@H]3CCCc4ccccc43)cnc2c1-c1cc(Cl)cc(Cl)c1` [Compound 58] registered an EC50 in experiment [2] above 30 µM.

As to `O=C(N[C@@H]1COc2ccccc21)c1cnc2c(-c3cc(Cl)cc(Cl)c3)csc2c1N1CCOCC1` [Compound 100], the EC50 in experiment [2] is above 30 µM.

On to `O=C(N[C@H]1CCOc2ccccc21)c1cnc2c(-c3cc(F)cc(F)c3F)csc2c1N1CCOCC1` [Compound 15], for which the EC50 in experiment [2] is above 30 µM.

On to `Cc1sc2c(N(C)C)c(C(=O)N[C@H]3CCOc4ccccc43)cnc2c1-c1cccc(C(F)(F)F)c1` [Compound 104], for which the EC50 in experiment [2] is above 30 µM.

Take `O=C(N[C@H]1CCOc2ccccc21)c1cnc2c(-c3cccc(F)c3F)csc2c1N1CCOCC1` [Compound 24]: in experiment [2], the EC50 was above 30 µM.

In the case of `O=C(Nc1cccc2ccccc12)c1cnc2c(-c3cccc(Cl)c3Cl)csc2c1N1CCOCC1` [Compound 14], the values for the EC50 in experiment [1] and in experiment [2] were below 10 µM and above 30 µM, respectively.

For `Cc1sc2c(N3CCOCC3)c(C(=O)N[C@H]3CCc4ccccc43)cnc2c1-c1cccc(C(F)(F)F)c1` [Compound 112], the EC50 in experiment [2] is above 30 µM.

`Cc1sc2c(N(C)C)c(C(=O)N[C@H]3CCOc4ccccc43)cnc2c1-c1cccc(Cl)c1Cl` [Compound 36, (S)—N-(chroman-4-yl)-3-(2,3-dichlorophenyl)-7-dimethylamino-2-methylthieno[3,2-b]pyridine-6-carboxamide] had an EC50 in experiment [2] above 30 µM. Further, the inhibition in vivo at 10 mg/kg in the experiment on Haemonchus contortus was at least 80%.

Take `C[C@H](NC(=O)c1cnc2c(-c3cccc(Cl)c3Cl)csc2c1N(C)C)c1ccccc1` [Compound 11]: the EC50 in experiment [2] was above 30 µM.

Turning to `O=C(N[C@H]1CCOc2ccccc21)c1cnc2c(-c3cccc(Cl)c3Cl)csc2c1N1CCOCC1` [Compound 4, (S)—N-(chroman-4-yl)-3-(2,3-dichlorophenyl)-7-morpholinothieno[3,2-b]pyridine-6-carboxamide], the EC50 in experiment [2] fell in the range of 5 to 10 µM.
